“Also recorded” adds a separate entry of the source.

This series can be described thus: Peptide partition from solution to membrane followed by tryptophan intrinsic fluorescence titration. The class given is physicochemical. The settings on record: for ΔG (free energy of membrane partition): ΔG=−RTln(KX); for ability to interact with / partition into membranes: tryptophan fluorescence and CD. The protocol:
Small unilamellar vesicles (SUVs) were prepared at a lipid concentration of 10 mM from POPC and POPG at a molar ratio of 10:0 or 8:2 or from DOPC, DOPE, DOPG, Chol at molar ratio 10:0:0:0, 8:0:2:0, 7:3:0:0, 7:0:0:3, 6:3:0:1, and 4:3:2:1 in buffer A, as previously described. Briefly, SUVs were prepared by reverse-phase evaporation and passed through polycarbonate filters 0.8-, 0.4-, and 0.2-μm (Merck Millipore, Darmstadt, Germany). Vesicles were sonicated using a sonicator tip and their hydrodynamic diameters, dispersity, and charge were checked by dynamic light scattering (DLS) and electrophoretic mobility using a NanoZS instrument (Malvern Instruments, Orsay, France).
Fluorescence titrations were performed with a FP-8200 Jasco spectrofluorimeter, equipped with a Peltier-thermostated ETC-272T (25 °C). A bandwidth of 5 nm was used for both excitation and emission beams. Fluorescence experiments were carried out in a 109.004F-QS cuvette (Hellma, France) with constant stirring. Fluorescence emission was recorded between 300 and 400 nm at a scan rate of 200 nm/min, with an excitation wavelength of 280 nm. Fluorescence emission spectra were corrected for SUV light scattering. Maximum emission wavelength (λmax) and fluorescence intensity ratio at 330 nm over 370 nm (P454-derived peptides) or at 340 nm over 380 nm (CyaA-derived peptides) were used to report peptide-membrane interaction and to measure the partition coefficient KX.
The partition coefficient KX is defined as the ratio of protein concentrations in the lipid and in buffer phases. It is expressed as follows:
KX=PL/PW·[W]/[L] , providing PW/PL=[W]/KX[L] , where PW is the concentration of peptide in solution, PL the concentration of peptides partitioning into lipid membrane, [W] represents the concentration of water, and [L] the lipid concentration.
The fraction of peptide partitioned into the membrane phase, fPL, is equal to: fPL=PL/PT=PL/PL+PW=1/(PW/PL)+1=1/([W]/KX[L])+1
The partition coefficient is related to the apparent dissociation constant as follows: KX * KD = [W] with KD * PL = PW * [L]. The equation fPL is fitted to the experimental data using the KaleidaGraph software, providing KX. The free energy corresponding to the transfer of the peptide from the aqueous phase to the lipid phase is given by the equation ΔG=−RTln(KX) , where ΔG is the free energy in kcal/mol, R the gas constant (R = 1.98 × 10^−3 kcal/mol/K), and T the temperature in Kelvin.

Setting [1] is: SUVs DOPC/DOPE/DOPG/Chol 4:3:2:1, Trp fluorescence titration (exc. 280 nm, ratio 340/380 nm), 20 mM HEPES, 150 mM NaCl, pH 7.4, 25 °C.
[2] abbreviates: SUVs DOPC/DOPE/DOPG/Chol 4:3:2:1.
[3] abbreviates: SUVs DOPC/DOPE/DOPG/Chol 4:3:2:1, pH 7.4, 25 °C.
The mark [4] stands for this setting: SUVs DOPC/DOPG 8:2, Trp fluorescence titration (exc. 280 nm, ratio 330/370 nm), 20 mM HEPES, 150 mM NaCl, pH 7.4, 25 °C, S.D. within ±5%.
The mark [5] stands for this setting: SUVs DOPC/DOPG 8:2, pH 7.4, 25 °C, S.D. ±0.1 kcal/mol.
The mark [6] stands for this setting: SUVs DOPC, Trp fluorescence titration (exc. 280 nm, ratio 330/370 nm), 20 mM HEPES, 150 mM NaCl, pH 7.4, 25 °C, S.D. within ±5%.
The mark [7] stands for this setting: SUVs DOPC, pH 7.4, 25 °C, S.D. ±0.1 kcal/mol.
The mark [8] stands for this setting: SUVs POPC/POPG 8:2, Trp fluorescence titration (exc. 280 nm, ratio 330/370 nm), 20 mM HEPES, 150 mM NaCl, pH 7.4, 25 °C, S.D. within ±5%.
Where [9] appears, read: SUVs POPC/POPG 8:2, pH 7.4, 25 °C, S.D. ±0.1 kcal/mol.
[10] abbreviates: SUVs POPC, Trp fluorescence titration (exc. 280 nm, ratio 330/370 nm), 20 mM HEPES, 150 mM NaCl, pH 7.4, 25 °C, S.D. within ±5%.
Setting [11] is: SUVs POPC, pH 7.4, 25 °C, S.D. ±0.1 kcal/mol.

In the case of `CC[C@H](C)[C@H](NC(=O)[C@H](C)NC(=O)[C@H](Cc1c[nH]cn1)NC(=O)[C@@H](NC(=O)[C@H](CC(C)C)NC(=O)[C@H](CCCNC(=N)N)NC(=O)[C@H](CCC(N)=O)NC(=O)[C@H](C)NC(=O)[C@H](C)NC(=O)[C@H](C)NC(=O)[C@@H](NC(=O)[C@H](C)NC(=O)[C@H](CCC(N)=O)NC(=O)[C@H](C)NC(=O)CNC(=O)[C@H](CCC(N)=O)NC(=O)[C@H](CC(C)C)NC(=O)[C@H](C)NC(=O)[C@H](CCCNC(=N)N)NC(=O)[C@H](CCC(N)=O)NC(=O)CNC(=O)[C@H](Cc1c[nH]c2ccccc12)NC(=O)[C@H](Cc1c[nH]cn1)NC(=O)[C@H](C)NC(=O)[C@H](CO)NC(=O)[C@H](C)NC(C)=O)C(C)C)C(C)C)C(=O)N[C@@H](C)C(=O)N[C@@H](CC(C)C)C(=O)N[C@@H](CCSC)C(=O)N[C@H](C(=O)N[C@@H](CCC(N)=O)C(N)=O)[C@@H](C)O` [Peptide P454], for the setting “POPC with POPE and cholesterol, data not shown”, the “membrane partition on addition of both POPE and cholesterol to POPC” value is “totally abolishes the partition”. Further, the “partition coefficient KX” value (SUVs DOPC/Chol 7:3, Trp fluorescence titration, pH 7.4, 25 °C, S.D. within ±5%) is reported as 60 000; the “partition coefficient KX” value (SUVs DOPC/DOPE 7:3, Trp fluorescence titration, pH 7.4, 25 °C, S.D. within ±5%) was 80 000; the “partition coefficient KX” value (SUVs DOPC/DOPE/Chol 6:3:1, Trp fluorescence titration, pH 7.4, 25 °C, S.D. within ±5%) is given as 40 000; the “partition coefficient KX” value under setting [1] is reported as 300 000; the “partition coefficient KX” value under setting [4] was 1 200 000; the “partition coefficient KX” value under setting [6] was 505 000. Moreover, the “partition coefficient KX” value runs as follows: under setting [8], 790 000; under setting [10], 150 000. Further, the “ΔG (free energy of membrane partition)” value (SUVs DOPC/Chol 7:3, pH 7.4, 25 °C) is recorded as -6.5 kcal/mol; the “ΔG (free energy of membrane partition)” value (SUVs DOPC/DOPE 7:3, pH 7.4, 25 °C) is -6.7 kcal/mol; the “ΔG (free energy of membrane partition)” value (SUVs DOPC/DOPE/Chol 6:3:1, pH 7.4, 25 °C) was -6.3 kcal/mol; the “ΔG (free energy of membrane partition)” value under setting [3] was -7.4 kcal/mol; the “ΔG (free energy of membrane partition)” value under setting [5] was -8.3 kcal/mol; the “ΔG (free energy of membrane partition)” value under setting [7] is given as -7.8 kcal/mol. The “ΔG (free energy of membrane partition)” value under setting [9] is listed as -8 kcal/mol and the “ΔG (free energy of membrane partition)” value under setting [11] is -7 kcal/mol. Moreover, the “ability to interact with / partition into membranes” value under setting [2] is listed as “able to interact with membranes”. For the setting “native P454 vs R12K, all membrane lipid compositions tested”, the “ΔΔG, net contribution of arginine residues to partition compared to the lysine residues of R12K” value was about 0.5 ± 0.2 kcal/mol.
As for “Ac-TTEISKSALELAAITGNW-NH2 [Peptide P777]”, the “ability to interact with / partition into membranes” value under setting [2] is “no detectable change of tryptophan fluorescence or CD signature; also recorded: do not”.
Turning to “Ac-ASAHWGQKALQGAQAVAAAQKLVHAIALMTQ-NH2 [P454 R12K]”, the “partition coefficient KX” value is reported as 750 000 under setting [4], 265 000 under setting [6], 215 000 under setting [8] and 60 000 under setting [10]. Further, the “ΔG (free energy of membrane partition)” value under setting [5] is -8 kcal/mol, the “ΔG (free energy of membrane partition)” value under setting [7] is given as -7.4 kcal/mol, the “ΔG (free energy of membrane partition)” value under setting [9] is given as -7.3 kcal/mol and the “ΔG (free energy of membrane partition)” value under setting [11] is -6.5 kcal/mol.
Regarding “Ac-ASAHWGQEALQGAQAVAAAQELVHAIALMTQ-NH2 [P454 R12E]”, the “partition coefficient KX” value was 70 000 under setting [4], 85 000 under setting [6], 30 000 under setting [8] and 7 000 under setting [10]. The “ΔG (free energy of membrane partition)” value is, setting by setting: under setting [5], -6.6 kcal/mol; under setting [7], -6.7 kcal/mol; under setting [9], -6.1 kcal/mol; under setting [11], -5.2 kcal/mol.
`CC[C@H](C)[C@H](NC(=O)[C@H](CCCCN)NC(=O)[C@H](Cc1c[nH]c2ccccc12)NC(=O)[C@H](CC(C)C)NC(=O)[C@H](CC(C)C)NC(=O)[C@H](CC(=O)O)NC(=O)[C@@H](NC(=O)[C@H](CCCNC(=N)N)NC(=O)[C@H](CCC(=O)O)NC(=O)[C@H](CCCNC(=N)N)NC(=O)[C@H](CC(=O)O)NC(=O)[C@H](CC(C)C)NC(C)=O)[C@@H](C)CC)C(=O)N[C@@H](C)C(=O)N[C@@H](CCCNC(=N)N)C(=O)N[C@@H](C)C(=O)NCC(=O)N[C@@H](C)C(=O)N[C@@H](CCCNC(=N)N)C(=O)N[C@@H](CO)C(=O)N[C@@H](C)C(=O)N[C@H](C(=O)NCC(N)=O)C(C)C` [Peptide P233]: the “partition coefficient KX” value under setting [1] is 60 000. Under setting [2], the “ability to interact with / partition into membranes” value is recorded as “able to interact with membranes”. In addition, the “ΔG (free energy of membrane partition)” value under setting [3] was -6.5 kcal/mol.
With Ac-EASSAVAETVSGFFRGW-NH2 [Peptide P509], under setting [1], the “partition coefficient KX” value is recorded as 80 000. The “ability to interact with / partition into membranes” value under setting [2] is listed as “able to interact with membranes”. In addition, the “ΔG (free energy of membrane partition)” value under setting [3] was -6.7 kcal/mol.
As for “Ac-ASAHWGQAALQGAQAVAAAQALVHAIALMTQ-NH2 [P454 R12A]”, the “partition coefficient KX” value is 795 000 under setting [4], 610 000 under setting [6], 275 000 under setting [8] and 195 000 under setting [10]. Also, the “ΔG (free energy of membrane partition)” value under setting [5] is recorded as -8 kcal/mol, the “ΔG (free energy of membrane partition)” value under setting [7] was -7.9 kcal/mol, the “ΔG (free energy of membrane partition)” value under setting [9] is reported as -7.4 kcal/mol and the “ΔG (free energy of membrane partition)” value under setting [11] is recorded as -7.2 kcal/mol.
Turning to “Ac-LVQQSHYADQLDKLAQESSAYGW-NH2 [Peptide P626]”, under setting [2], the “ability to interact with / partition into membranes” value is recorded as “no detectable change of tryptophan fluorescence or CD signature; also recorded: do not”.
With Ac-IPAAVLDGIKAVAKEKNW-NH2 [Peptide P19], the “ability to interact with / partition into membranes” value under setting [2] is given as “no detectable change of tryptophan fluorescence or CD signature; also recorded: do not”.
As for “Ac-AYFEKNLQARHEQLANSDGLRKMLADLQAGWNASS-NH2 [Peptide P737]”, under setting [1], the “partition coefficient KX” value is 20 000. Moreover, under setting [2], the “ability to interact with / partition into membranes” value is “able to interact with membranes”. Also, the “ΔG (free energy of membrane partition)” value under setting [3] is reported as -5.8 kcal/mol.
Consider “Ac-ASAHWGQQALQGAQAVAAAQQLVHAIALMTQ-NH2 [P454 R12Q]”, for which the “partition coefficient KX” value by setting is: under setting [4], 310 000; under setting [6], 195 000; under setting [8], 70 000; under setting [10], 35 000. Moreover, the “ΔG (free energy of membrane partition)” value reads like this: under setting [5], -7.5 kcal/mol; under setting [7], -7.2 kcal/mol; under setting [9], -6.6 kcal/mol; under setting [11], -6.2 kcal/mol.
As to “Ac-ASAHWGQRALQGAQAVAAAQQLVHAIALMTQ-NH2 [P454 R2Q]”, the “partition coefficient KX” value under setting [4] is reported as 655 000, the “partition coefficient KX” value under setting [6] is given as 260 000, the “partition coefficient KX” value under setting [8] is recorded as 150 000 and the “partition coefficient KX” value under setting [10] is 90 000. Besides, the “ΔG (free energy of membrane partition)” value is on record as -7.9 kcal/mol under setting [5], -7.4 kcal/mol under setting [7], -7 kcal/mol under setting [9] and -6.7 kcal/mol under setting [11].

The values are drawn from article PMC5705984, “Membrane-Active Properties of an Amphitropic Peptide from the CyaA Toxin Translocation Region” (Toxins, 2017).
